Test results from US7973062B2, “Androgen receptor-ablative agents” (The Ohio State University Research Foundation, priority 2008, dated 2011).
pIC50: −log10 of the molar value. Entries after “also recorded” stand apart in the source; their conditions may differ.

Columns and labels:
Format in all cases: cell-based
PPARγ = target: T1, PPARγ (Homo sapiens, UniProt P37231); assay: PPRE-luciferase reporter assay (PPRE-x3-TK-Luc) in PC-3 cells; details: PC-3 cells transfected with PPRE-x3-TK-Luc
T1 construct: In PC-3 cells transfected with a reporter construct (PPRE-x3-TK-Luc); endogenous in cells; host or cells: PC-3
T1 sequence (P37231 1-505): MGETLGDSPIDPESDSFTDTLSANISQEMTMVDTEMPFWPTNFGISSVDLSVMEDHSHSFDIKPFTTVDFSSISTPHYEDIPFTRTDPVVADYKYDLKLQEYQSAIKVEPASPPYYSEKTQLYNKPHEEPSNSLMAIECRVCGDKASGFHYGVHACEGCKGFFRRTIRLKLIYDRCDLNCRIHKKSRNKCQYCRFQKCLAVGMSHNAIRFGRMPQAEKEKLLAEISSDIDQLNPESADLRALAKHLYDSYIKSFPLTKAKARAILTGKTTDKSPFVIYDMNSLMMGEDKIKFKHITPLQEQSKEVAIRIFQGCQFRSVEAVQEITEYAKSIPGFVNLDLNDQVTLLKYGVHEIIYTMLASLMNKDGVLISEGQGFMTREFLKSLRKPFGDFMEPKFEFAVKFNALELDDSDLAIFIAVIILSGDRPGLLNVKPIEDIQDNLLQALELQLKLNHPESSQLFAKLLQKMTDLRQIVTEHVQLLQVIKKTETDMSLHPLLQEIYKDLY
Source text: Transfection and Luciferase assay. The 3.6-kilobase AR promoter-linked reporter plasmid p-3600ARCAT was kindly provided by Dr. Chawnshang Chang (University of Rochester Medical Center, Rochester, N.Y.). The AR promoter gene (−3600 to +550) encompassing the transcription start site was isolated by using PCR to generate hAR-luc with suitable primers. The fragment was subcloned into the pGL3 luciferase reporter vector (Promega, Madison, Wis.) at KpnI and BglII in the multiple cloning site. The PPRE-x3-TK-Luc reporter vector contains three copies of the PPAR-response element (PPRE) upstream of the thymidine kinase promoter-luciferase fusion gene and was kindly provided by Dr. Bruce Spiegelman (Harvard University, Cambridge, Mass.). The pCMVSp1 plasmid was purchased from Origene Technologies, Inc. (Rockville, Md.). LNCaP or PC3 cells were transfected with 5 μg of individual plasmids in an Amaxa Nucleofector using a cell line-specific nucleofector kit according to the manufacturer's protocol (Amaxa Biosystems, Cologne, Germany), and then seeded in 6-well plates at 5×10^5 cells per well for 48 h. […] For each transfection, herpes simplex virus thymidine kinase promoter-driven Renilla reniformis luciferase was used as an internal control for normalization.
Fifty-μl aliquots of the lysates were added to 96-well plates, and luciferase activity was monitored after adding 100 μl of luciferase substrate (Promega) each well by using a MicroLumatPlus LB96V luminometer (Berthold Technologies, Oak Ridge, Tenn.) with the WinGlow software package. All transfection experiments were carried out in six replicate.

LNCaP cells = assay: Flow cytometric cell cycle analysis in LNCaP cells; details: 72 h
Method: Cell Cycle Analysis. LNCaP cells were seeded in 6-well plates ([…]) and treated with different concentrations of compound 12 for 72 h. After extensive washing with PBS, cells were trypsinized followed by fixation in ice-cold 80% ethanol at 4° C. overnight. Cells were then centrifuged for 5 min at 1500×g at room temperature, and stained with propidium iodide (50 μg/ml) and RNase A (100 units/ml) in PBS. Cell cycle phase distributions were determined on a FACScort flow cytometer and analyzed by the ModFitLT V3.0 program.

[1] = test system: androgen receptor (AR) expression; assay: Western blot analysis of AR protein expression in LNCaP cells
Method: RT-PCR and Immunoblotting. LNCaP cells were cultured in T25 flasks at an initial density of 1×10^6 cells/flask. After exposure to various compounds at the indicated conditions, cells were subject to total RNA isolation by using an RNeasy mini-kit (QIAGEN, Valencia, Calif.). RNA concentrations were determined by measuring absorption at 260 nm in a spectrophotometer. Aliquots of 6 μg of total RNA from each sample were reverse-transcribed to cDNA using an Omniscript RT Kit (QIAGEN) according to the manufacturer's instructions, using suitable primers.
For immunoblotting, protein extracts were prepared by M-PER Mammalian Protein Extraction Reagent (Pierce, Rockford, Ill.) with freshly added 1% phosphatase and protease inhibitor cocktails (Calbiochem) followed by centrifugation at 13,000×g for 10 min. Supernatant was collected and protein concentration was determined by protein assay reagent (Bio-Rad, CA). Protein extracts were then suspended in 2×SDS sample buffer, and subject to 10% SDS-polyacrylamide gels. After electrophoresis, proteins were transferred to nitrocellulose membranes using a semidry transfer cell. The transblotted membrane was washed twice with Tris-buffered saline containing 0.1% Tween 20 (TBST). After blocking with TBST containing 5% nonfat milk for 1 h, the membrane was incubated with mouse monoclonal anti-AR (Santa Cruz) or anti-β-actin (MP Biomedicals) antibodies (diluted 1:1000) in 1% TBST nonfat milk at 4° C. overnight. After incubation with the primary antibody, the membrane was washed three times with TBST for a total of 30 min, followed by incubation with horseradish peroxidase conjugated goat anti-mouse IgG (diluted 1:2500) for 1 h at room temperature. After three thorough washes with TBST for a total of 30 min, the immunoblots were visualized by enhanced chemiluminescence.

CC1(CN2C(=O)S/C(=C\c3ccc(O)c(C(F)(F)F)c3)C2=O)CCCCC1 [Compound 12, 5-(4-Hydroxy-3-trifluoromethyl-benzylidene)-3-(1-methyl-cyclohexylmethyl)-thiazolidine-2,4-dione]
PPARγ activation (in words) (PPARγ): lacked appreciable activity | cell cycle distribution (LNCaP cells): dose-dependent increase in the sub-G1 population, accompanied by decreases in the G2/M phase | AR expression level after compound washed out of the medium ([1]; 5 μM, washout then drug-free medium (FIG. 6C)): rapidly restored | suppression of AR protein expression (in words) ([1]; 10% FBS, 72 h, Western blot): completely inhibited AR expression in LNCaP cells at low μM concentrations; also recorded: an-order-of-magnitude higher potency than ciglitazone | pIC50 ([1]; 72-h exposure, Western blot (FIG. 4C), read-out: IC50 for suppressing AR expression): ~5.70
